Measurements reported in publication PMC12817916, “A small-molecule HSP90 inhibitor, NVP-HSP990, alleviates rotavirus infection” (Journal of Virology, 2025).

Tests used:
[1] = system: MAPK signaling pathway (ERK1/2, p38 MAPK, SAPK/JNK); assay: Western blot of MAPK components; assay type: cell-based; details: WB; for MAPK activation (especially ERK1/2 and p38 MAPK): 100 nM, 20 h
Experimental: MA104, Caco-2, and HT-29 cells were mock-infected with PBS, infected with RV Wa or SA11 strains (MOI = 3), or treated with 1 µM C16-PAF (C16) for 1 h. After removing the viruses or C16-PAF and washing cells two times with DMEM, the cells were cultivated with 2 mL DMEM containing 100 nM NVP-HSP990 (+), an equal volume of DMSO (−), or 1 µM C16-PAF at 37°C and 5% CO2 for 20 h. Then, the cells in each well (~5 × 10^5 cells) were lysed with 100 µL RIPA lysis buffer (Beyotime, China) plus protease inhibitor cocktail (Thermo Fisher Scientific, USA). The cell lysates were collected in 1.5 mL EP tubes, sonicated five times for 15 s at 80 watts on ice, and clarified by centrifugation at 12,000 × g for 10 min at 4°C. After protein quantification with a BCA kit (Beyotime, China), the protein samples were mixed with 25 µL 5× SDS loading buffer (Beyotime, China), boiled at 100°C for 5 min, chilled on ice, vortexed for seconds, and centrifuged at 12,000 × g for 3 min at room temperature. Twenty micrograms of protein was subjected to protein electrophoresis in precast 4–20% SDS-PAGE gels (Beyotime, China), and then transferred to 0.22 µm PVDF membranes (Millipore, USA). After blocking with 5% BSA, the membranes were incubated with rabbit antibodies to MAPK components (SAPK/JNK, phospho-SAPK/JNK, p38 MAPK, phospho-p38 MAPK, ERK1/2, phospho-ERK1/2) (CST, USA), rabbit anti-RV VP6/VP7 polyclonal antibodies (CUSABIO, China), or mouse mAb to β-actin (Servicebio, China) as an internal reference. Afterward, the membranes were incubated with horseradish peroxidase-conjugated rat anti-rabbit IgG (CST, USA) or rat anti-mouse IgG (CST, USA). Immunoreactive bands were visualized using enhanced chemiluminescence substrate BeyoECL Plus (Beyotime, China).
Fig 4 NVP-HSP990 inhibited MAPK activation and facilitated expression of tight junction-associated proteins in intestinal cells. […]
Supplementary Fig. 7. […] The grayscale values of WB bands were quantified, and the relative protein levels of MAPK components were normalized to β-actin. […]

HSP90α = details: targets the N-terminal of HSP90α; cited from earlier work
[2] = cited from earlier work
HSP90β = details: targets the N-terminal of HSP90β; cited from earlier work

SMILES: COc1cccc(-c2cc(F)ccc2[C@H]2Cc3nc(N)nc(C)c3C(=O)N2)n1 [NVP-HSP990]
- MAPK activation caused by non-infectious factors (drug stimulation) ([1]; Caco-2 cells, 1 µM C16-PAF, 100 nM NVP-HSP990, 20 h): potently inhibited
- MAPK activation (especially ERK1/2 and p38 MAPK) ([1]; RV-infected Caco-2 and HT-29 cells): significantly inhibited
- MAPK activation (especially ERK1/2 and p38 MAPK) ([1]; RV-infected MA104 cells): not
- IC50 (HSP90α): 0.6 nM
- brain penetration [2]: brain-penetrating
- oral bioavailability [2]: orally bioavailable
- IC50 (HSP90β): 0.8 nM
